In PubChem BioAssay AID248 (DTP/NCI, 2004):
“And” between values parts separate entries of the source, which are not always exact repeats. Equal values may be shown once. Toxic doses and inconclusive results are not listed. No stated cut-off is given here; in the data, active means T/C of 150% or more; inactive means T/C below 125%.

System: L1210 leukemia ip in BDF1 mice, survival T/C
Test: NCI In Vivo Anticancer Drug Screen. Data for tumor model L1210 Leukemia (intraperitoneal) in B6D2F1 (BDF1) mice
Conditions: endpoint: mean survival time, higher = longer survival
Procedure, shortened: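 Tumor cells were implanted, animals were treated, and survival was followed. The result divides the treated measurement by the vehicle-control measurement.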

[1] = dose: 100.0 mg/kg/injection, schedule: Q01DX009 (ip), vehicle: saline with Tween-80
[2] = dose: 200.0 mg/kg/injection, schedule: Q01DX009 (ip), vehicle: saline with Tween-80
[3] = dose: 400.0 mg/kg/injection, schedule: Q01DX009 (ip), vehicle: saline with Tween-80
[4] = dose: 100.0 mg/kg/injection, schedule: Q04DX003 (ip), vehicle: Klucel (hydroxypropylcellulose) (HPC)
[5] = dose: 200.0 mg/kg/injection, schedule: Q04DX003 (ip), vehicle: Klucel (hydroxypropylcellulose) (HPC)
[6] = dose: 50.0 mg/kg/injection, schedule: Q01DX009 (ip), vehicle: saline with Tween-80
[7] = dose: 100.0 mg/kg/injection, schedule: Q01DX001 (ip), vehicle: other

Measured: T/C

CC(C)CCC(C)C1CCC2C3CC([N+](=O)[O-])=C4CC(OC(=O)c5ccccc5)CCC4(C)C3CCC12C (stereo not drawn)
inactive: [1] 103 % of control | [2] 90 % of control | [3] 90 % of control

COC(=O)CSC(=O)C(O)c1ccccc1 (stereo not drawn)
inactive: [4] 96 % of control | [5] 103 % of control | dose: 400.0 mg/kg/injection, schedule: Q04DX003 (ip), vehicle: Klucel (hydroxypropylcellulose) (HPC) 103 % of control

NC(=O)C1(O)C(Cl)(Cl)CCCC1(Cl)Cl
inactive: [6] 102 % of control | [1] 91 % of control | [2] 106 % of control

C=COC(=O)N1c2ccc(C)cc2C=CC1C#N (stereo not drawn)
inactive: dose: 100.0 mg/kg/injection, schedule: Q04DX003 (ip), vehicle: gum acacia 92 % of control | dose: 200.0 mg/kg/injection, schedule: Q04DX003 (ip), vehicle: gum acacia 102 % of control | dose: 400.0 mg/kg/injection, schedule: Q04DX003 (ip), vehicle: gum acacia 86 % of control

O=[N+]([O-])c1cc(Cl)c(Cl)cc1[N+](=O)[O-]
inactive: dose: 50.0 mg/kg/injection, schedule: Q04DX002 (ip), vehicle: Klucel (hydroxypropylcellulose) (HPC) 106 % of control | dose: 75.0 mg/kg/injection, schedule: Q04DX002 (ip), vehicle: Klucel (hydroxypropylcellulose) (HPC) 103 % of control | dose: 150.0 mg/kg/injection, schedule: Q04DX002 (ip), vehicle: Klucel (hydroxypropylcellulose) (HPC) 101 % of control and 110 % of control

CNC(=O)c1cc(/C=C/c2c[nH]c3ccccc23)c[n+](C)c1
inactive: [7] 102 % of control | dose: 200.0 mg/kg/injection, schedule: Q01DX001 (ip), vehicle: other 100 % of control | dose: 400.0 mg/kg/injection, schedule: Q01DX001 (ip), vehicle: other 94 % of control

CC1=C(OS(=O)(=O)c2ccc(C)cc2)CCCC1=O
inactive: [6] 100 % of control | [1] 100 % of control | [2] 88 % of control

Cc1cc([N+](=O)[O-])ccc1NS(=O)(=O)c1ccccc1
inactive: dose: 50.0 mg/kg/injection, schedule: Q01DX009 (ip), vehicle: Klucel (hydroxypropylcellulose) (HPC) 92 % of control | dose: 100.0 mg/kg/injection, schedule: Q01DX009 (ip), vehicle: Klucel (hydroxypropylcellulose) (HPC) 95 % of control | [4] 102 % of control | dose: 200.0 mg/kg/injection, schedule: Q01DX009 (ip), vehicle: Klucel (hydroxypropylcellulose) (HPC) 95 % of control | [5] 97 % of control

CN(Cc1cnc2nc(N)nc(N)c2n1)c1ccc(C(=O)NC(CCC(=O)O)C(=O)O)cc1C(F)(F)F (stereo not drawn)
active: dose: 5.0 mg/kg/injection, schedule: Q01DX009 (ip), vehicle: sodium bicarbonate 158 % of control | dose: 10.0 mg/kg/injection, schedule: Q01DX009 (ip), vehicle: sodium bicarbonate 168 % of control

O=[N+]([O-])CC(C[N+](=O)[O-])C(F)(F)C(F)(F)C(F)(F)F
inactive: [7] 101 % of control

C[N+]([O-])(CCC#N)CC(=O)O (stereo not drawn)
inactive: dose: 100.0 mg/kg/injection, schedule: Q01DX001 (ip), vehicle: saline 97 % of control | dose: 200.0 mg/kg/injection, schedule: Q01DX001 (ip), vehicle: saline 101 % of control

CSCS(C)=O (stereo not drawn)
inactive: dose: 100.0 mg/kg/injection, schedule: Q04DX003 (ip), vehicle: saline 104 % of control | dose: 200.0 mg/kg/injection, schedule: Q04DX003 (ip), vehicle: saline 103 % of control | dose: 400.0 mg/kg/injection, schedule: Q04DX003 (ip), vehicle: saline 103 % of control

O=S(=O)(OCCOS(=O)(=O)c1ccccc1)c1ccccc1
inactive: dose: 100.0 mg/kg/injection, schedule: Q04DX002 (ip), vehicle: Klucel (hydroxypropylcellulose) (HPC) 115 % of control | dose: 200.0 mg/kg/injection, schedule: Q04DX002 (ip), vehicle: Klucel (hydroxypropylcellulose) (HPC) 107 % of control | dose: 400.0 mg/kg/injection, schedule: Q04DX002 (ip), vehicle: Klucel (hydroxypropylcellulose) (HPC) 100 % of control

Oc1ccc(N=Cc2ccc(C=Nc3ccc(O)cc3)cc2)cc1
inactive: [1] 106 % of control | dose: 100.0 mg/kg/injection, schedule: Q04DX003 (ip), vehicle: saline with Tween-80 112 % of control | [2] 100 % of control | dose: 200.0 mg/kg/injection, schedule: Q04DX003 (ip), vehicle: saline with Tween-80 100 % of control | [3] 105 % of control | dose: 400.0 mg/kg/injection, schedule: Q04DX003 (ip), vehicle: saline with Tween-80 100 % of control
